How the values were obtained:
[1] = test system: antibodies in sera from SARS patients (sera 1a, 1b, 2, 6, 37, 62, London, SARS-yellow, SARS-green); type: binding, human; parameters: Binding of serum 6 to linear peptides of protein X1 of SARS-CoV Urbani / Binding of serum 37 to linear peptides of protein X1 of SARS-CoV Urbani / Binding of serum 6 to looped/cyclic peptide (PEPSCAN-ELISA) / Binding of serum 37 to looped/cyclic peptide (PEPSCAN-ELISA) / Binding of serum 37 to looped/cyclic peptides of protein X1 of SARS-CoV Urbani / Binding of serum 6 to linear peptides of protein X2 / Binding of serum 37 to linear peptides of protein X2 / Binding of serum 37 to looped/cyclic peptides of protein X2 of SARS-CoV Urbani / Binding of serum 6 to linear peptides of protein M of SARS-CoV Urbani / Binding of serum 37 to linear peptides of protein M of SARS-CoV Urbani / Binding of serum 6 to looped/cyclic peptides of protein M of SARS-CoV Urbani / Binding of serum 37 to looped/cyclic peptides of protein M of SARS-CoV Urbani / Binding of serum 6 to linear peptides of protein X3 of SARS-CoV Urbani / Binding of serum 37 to linear peptides of protein X3 of SARS-CoV Urbani / Binding of serum 37 to looped/cyclic peptides of protein X3 of SARS-CoV Urbani / Binding of serum 6 to linear peptides of protein X4 of SARS-CoV Urbani / Binding of serum 37 to linear peptides of protein X4 of SARS-CoV Urbani / Binding of serum 37 to looped/cyclic peptides of protein X4 of SARS-CoV Urbani / Binding of serum 6 to linear peptides of protein X5 of SARS-CoV Urbani / Binding of serum 37 to linear peptides of protein X5 of SARS-CoV Urbani / Binding of serum 37 to looped/cyclic peptides of protein X5 of SARS-CoV Urbani / Binding of serum 6 to linear peptides of protein N of SARS-CoV Urbani / Binding of serum 37 to linear peptides of protein N of SARS-CoV Urbani / Binding of serum 6 to linear peptide (PEPSCAN-ELISA) / Binding of serum 1a to looped/cyclic peptides of protein N of SARS-CoV Urbani / Binding of serum 1b to looped/cyclic peptides of protein N of SARS-CoV Urbani / Binding of serum 2 to looped/cyclic peptides of protein N of SARS-CoV Urbani / Binding of serum 6 to looped/cyclic peptides of protein N of SARS-CoV Urbani / Binding of serum 37 to looped/cyclic peptides of protein N of SARS-CoV Urbani / Binding of serum 62 to looped/cyclic peptides of protein N of SARS-CoV Urbani / Binding of serum London to looped/cyclic peptides of protein N of SARS-CoV Urbani / Binding of serum SARS-green to looped/cyclic peptides of protein N of SARS-CoV Urbani: unit not given here
[2] = test system: control sera (pooled serum of ten healthy LUMC hospital workers; commercial negative donor pooled serum from the Dutch bloodbank); type: binding, human; parameters: Binding of Control serum LUMC to linear peptides / Binding of Control serum Blood-bank to linear peptides / Binding of Control serum LUMC to looped peptides / Binding of Control Serum Blood-Bank to Looped peptides / Binding of Control serum LUMC to linear peptides of the protein M of SARS-CoV Urbani / Binding of Control serum Blood-bank to linear peptides of the protein M of SARS-CoV Urbani / Binding of Control serum LUMC to looped peptides of the protein M of SARS-CoV Urbani / Binding of Control Serum Blood-Bank to Looped peptides of the protein M of SARS-CoV Urbani: unit not given here
[3] = test system: rabbit serum obtained by immunizing a rabbit with the SARS-CoV strain Frankfurt 1; type: binding; parameters: Binding of a rabbit serum to linear peptides / Binding of a rabbit serum to looped peptides / Rabbit serum linear peptides / Rabbit serum looped peptides / Binding of a rabbit serum to linear peptides of protein N of SARS-CoV Urbani (Rabbit serum linear peptides) / Binding of a rabbit serum to looped/cyclic peptides of protein N of SARS-CoV Urbani (Rabbit serum looped peptides): unit not given here
[4] = test system: recombinant human anti-SARS-CoV antibody 03-018; type: binding; parameters: Binding of antibody 03-018 to linear peptides of the N protein of SARS-CoV Urbani / Binding of antibody 03-018 to looped/cyclic peptides of the N protein of SARS-CoV Urbani: unit not given here

Sequence	Binding of serum 1a to linear peptides of protein N of SARS-CoV Urbani [1]	Binding of serum 1a to looped/cyclic peptides of protein N of SARS-CoV Urbani [1]	Binding of serum 1b to linear peptides of protein N of SARS-CoV Urbani [1]	Binding of serum 1b to looped/cyclic peptides of protein N of SARS-CoV Urbani [1]	Binding of serum 2 to linear peptides of protein N of SARS-CoV Urbani [1]	Binding of serum 2 to looped/cyclic peptides of protein N of SARS-CoV Urbani [1]	Binding of serum 6 to linear peptides of protein N of SARS-CoV Urbani [1]	Binding of serum 6 to looped/cyclic peptides of protein N of SARS-CoV Urbani [1]	Binding of serum 37 to linear peptides of protein N of SARS-CoV Urbani [1]	Binding of serum 37 to looped/cyclic peptides of protein N of SARS-CoV Urbani [1]	Binding of serum 62 to linear peptides of protein N of SARS-CoV Urbani [1]	Binding of serum 62 to looped/cyclic peptides of protein N of SARS-CoV Urbani [1]	Binding of serum London to linear peptides of protein N of SARS-CoV Urbani [1]	Binding of serum London to looped/cyclic peptides of protein N of SARS-CoV Urbani [1]	Binding of serum SARS-green to looped/cyclic peptides of protein N of SARS-CoV Urbani [1]	Binding of serum SARS-yellow to looped/cyclic peptides of protein N of SARS-CoV Urbani [1]	Binding of a rabbit serum to linear peptides of protein N of SARS-CoV Urbani (Rabbit serum linear peptides) [3]	Binding of a rabbit serum to looped/cyclic peptides of protein N of SARS-CoV Urbani (Rabbit serum looped peptides) [3]	Binding of antibody 03-018 to linear peptides of the N protein of SARS-CoV Urbani [4]	Binding of antibody 03-018 to looped/cyclic peptides of the N protein of SARS-CoV Urbani [4]	other results
GKMKELSPRWYFYYL	0.2	0.3	0.1	0.2	0.1	0.5	0.1	0.4	0.5	0.8	0.5	0.8	0.4	0.7	0.4	0.6	0.1	0.7	0.1	0.3	Binding of serum SARS-green to linear peptides of protein N of SARS-CoV Urbani [1]: 0.2; Binding of serum SARS-yellow to linear peptides of protein N of SARS-CoV Urbani [1]: 0.6; Binding of Control Serum Blood-Bank to Looped peptides [2]: 0.8; Binding of Control serum Blood-bank to linear peptides [2]: 0.6; Binding of Control serum LUMC to linear peptides [2]: 0.6; Binding of Control serum LUMC to looped peptides [2]: 0.7
HGAIKLDDKDPQFKD	0.2	0.2	0.1	0.1	0.2	0.2	0.1	0.1	0.8	0.5	0.7	0.3	0.6	0.3	0.3	0.3	0.1	0.3	0.1	0.2	Binding of serum SARS-green to linear peptides of protein N of SARS-CoV Urbani [1]: 0.4; Binding of serum SARS-yellow to linear peptides of protein N of SARS-CoV Urbani [1]: 0.6; Control Serum Blood-Bank Looped peptides [2]: 0.4; Control serum Blood-bank linear peptides [2]: 0.6; Control serum LUMC linear peptides [2]: 0.6; Control serum LUMC looped peptides [2]: 0.4
SRSRGNSRNSTPGSS	–	0.5	–	0.4	–	0.3	–	0.1	–	0.3	–	0.3	–	0.3	0.0	0.0	0.3	0.7	0.1	0.2	Binding of serum 1a to linear peptide (PEPSCAN-ELISA) [1]: 1.0; Binding of serum 1b to linear peptide (PEPSCAN-ELISA) [1]: 0.6; Binding of serum 2 to linear peptide (PEPSCAN-ELISA) [1]: 0.3; Binding of serum 6 to linear peptide (PEPSCAN-ELISA) [1]: 0.2; Binding of serum 37 to linear peptide (PEPSCAN-ELISA) [1]: 0.7; Binding of serum 62 to linear peptide (PEPSCAN-ELISA) [1]: 0.7; Binding of serum London to linear peptide (PEPSCAN-ELISA) [1]: 0.5; Binding of serum SARS-green to linear peptide (PEPSCAN-ELISA) [1]: 0.4; Binding of serum SARS-yellow to linear peptide (PEPSCAN-ELISA) [1]: 0.6; Binding of Control Serum Blood-Bank to Looped peptides [2]: 0.5; Binding of Control serum Blood-bank to linear peptides [2]: 0.7; Binding of Control serum LUMC to linear peptides [2]: 0.5; Binding of Control serum LUMC to looped peptides [2]: 0.4
LGTGPEASLPYGANK	0.3	0.3	0.1	0.2	0.3	0.5	0.2	0.2	0.7	0.5	0.7	0.4	0.5	0.4	0.4	0.5	0.2	0.4	0.1	0.2	Binding of serum SARS-green to linear peptides of protein N of SARS-CoV Urbani [1]: 0.5; Binding of serum SARS-yellow to linear peptides of protein N of SARS-CoV Urbani [1]: 0.7; Binding of Control Serum Blood-Bank to Looped peptides [2]: 0.5; Binding of Control serum Blood-bank to linear peptides [2]: 0.9; Binding of Control serum LUMC to linear peptides [2]: 0.9; Binding of Control serum LUMC to looped peptides [2]: 0.6
